Data as given in article PMC6010127, “Sulfonamide inhibition studies of two β-carbonic anhydrases from the ascomycete fungus Sordaria macrospora, CAS1 and CAS2” (Journal of Enzyme Inhibition and Medicinal Chemistry, 2018).

Columns and labels:
[1] = target: T1, CAS1 (Sordaria macrospora, UniProt F7VW42); assay: biochemical; design: stopped-flow CO2 hydration assay, phenol red 557 nm, pH 8.3, 15 min preincubation; KI by Cheng-Prusoff; settings: read-out: KI^a (nM) / CAS1^c / β
T1 construct: gene SMAC_03420; recombinant, obtained in-house
T1 sequence (F7VW42 1-234): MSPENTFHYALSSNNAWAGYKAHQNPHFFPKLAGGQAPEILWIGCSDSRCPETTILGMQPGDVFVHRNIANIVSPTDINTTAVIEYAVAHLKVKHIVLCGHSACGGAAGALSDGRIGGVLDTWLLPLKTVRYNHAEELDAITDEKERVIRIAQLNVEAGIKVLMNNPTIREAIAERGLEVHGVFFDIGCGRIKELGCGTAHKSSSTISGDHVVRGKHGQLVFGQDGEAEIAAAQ
Procedure: (§1) An Applied Photophysics stopped-flow instrument has been used for assaying the CA catalysed CO2 hydration activity. Phenol red (at a concentration of 0.2 mM) has been used as indicator, working at the absorbance maximum of 557 nm, with 20 mM TRIS (pH 8.3) as buffer, and 20 mM Na2SO4 (for maintaining constant the ionic strength), following the initial rates of the CA-catalysed CO2 hydration reaction for a period of 10–100 s. The CO2 concentrations ranged from 1.7 to 17 mM for the determination of the kinetic parameters and inhibition constants. For each inhibitor at least six traces of the initial 5–10% of the reaction have been used for determining the initial velocity. The uncatalysed rates were determined in the same manner and subtracted from the total observed rates. Stock solutions of inhibitor (0.1 mM) were prepared in distilled-deionized water and dilutions up to 0.01 nM were done thereafter with the assay buffer. Inhibitor and enzyme solutions were preincubated together for 15 min at room temperature prior to assay, in order to allow for the formation of the E–I complex. The inhibition constants were obtained by non-linear least-squares methods using PRISM 3 and the Cheng–Prusoff equation, as reported earlier, and represent the mean from at least three different determinations. All CA isofoms were recombinant ones obtained in-house as reported earlier[2]^,[9].

[2] = target: T2, CAS2 (Sordaria macrospora, UniProt C1L336); assay: biochemical; design: stopped-flow CO2 hydration assay, phenol red 557 nm, pH 8.3, 15 min preincubation; KI by Cheng-Prusoff
T2 construct: recombinant, obtained in-house
T2 sequence (C1L336 54-284): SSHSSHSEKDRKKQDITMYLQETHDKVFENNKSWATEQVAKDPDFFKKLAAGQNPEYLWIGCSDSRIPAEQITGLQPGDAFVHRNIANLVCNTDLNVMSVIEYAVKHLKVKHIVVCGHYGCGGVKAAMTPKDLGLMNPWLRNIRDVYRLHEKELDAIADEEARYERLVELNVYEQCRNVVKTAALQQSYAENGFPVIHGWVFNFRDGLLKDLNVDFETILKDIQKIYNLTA
Procedure: as §1, with “For each inhibitor at least six traces of the initial 5–10% of the reaction have been used for determining the initial velocity.” left out

[3] = target: T2, CAS2; assay: stopped-flow CO2 hydration assay; assay type: biochemical; settings: read-out: KI^a (nM) / CAS2^c / β
[4] = target: T1, CAS1; assay: stopped-flow CO2 hydration assay; assay type: biochemical
[5] = read-out: KI^a (nM) / CAS2^c / β, inhibitor
[6] = read-out: KI^a (nM) / CAS1^c / β

Ki [1] [nM]	Ki [2] [nM]	Ki [3] [nM]	Structure (SMILES)	further results
1220	5790		NS(=O)(=O)c1cc(Cl)c(Cl)c(S(N)(=O)=O)c1 [DCP]	
2110		410	NS(=O)(=O)c1nnc(NS(=O)(=O)c2ccccc2)s1 [BZA, benzolamide]	
	6900		Cc1ccc(S(N)(=O)=O)cc1 [compound 4]	
4430	3730		Cc1onc(-c2ccccc2)c1-c1ccc(S(N)(=O)=O)cc1 [VLX]	
	9120		Nc1ccc(S(N)(=O)=O)cc1Cl [compound 8]	
	7360		Nc1ccc(S(N)(=O)=O)cc1F [compound 7]	
1820	1890		NS(=O)(=O)Cc1noc2ccccc12 [ZNS]	
4240		216	NS(=O)(=O)c1ccc(S(=O)(=O)Nc2cccc3c(Cl)c[nH]c23)cc1 [IND, indisulam]	
8650		48.1	Nc1nnc(S(N)(=O)=O)s1 [compound 13, 5-amino-1,3,4-thiadiazole-2-sulfonamide]	

Further lines, the compound ahead of its results:

Structure (SMILES)	Ki [1] [nM]	Ki [2] [nM]	Ki [3] [nM]	further results
Cn1nc(S(N)(=O)=O)sc1=N [compound 14]				Ki ([1]; inhibitor): 7210 nM; Ki [2, 5]: 280 nM
CCN1CCCC1CNC(=O)c1cc(S(N)(=O)=O)ccc1OC (stereo not shown) [SLP, sulpiride]	1720		670	
NS(=O)(=O)c1ccc(CO)cc1 [compound 16, 4-hydroxymethyl-benzenesulfonamide]	4520		92.5	
Nc1ccc(S(N)(=O)=O)cc1Br [compound 9, bromosubstituted derivative 9]				Ki ([4]; pH 8.3, 20 mM TRIS, 20 mM Na2SO4, CO2 1.7-17 mM, 15 min preincubation at room temperature, read-out: KI^a (nM) / CAS1^c / β): 580 nM
NS(=O)(=O)c1ccc(N2CCCCS2(=O)=O)cc1 [SLT, sulthiame]	3210		496	
Cc1ccc(-c2cc(C(F)(F)F)nn2-c2ccc(S(N)(=O)=O)cc2)cc1 [CLX, celecoxib]	2510		857	
Nc1ccc(S(N)(=O)=O)cc1Br [compound 9]				Ki [2, 5]: 12000 nM
Nc1ccc(S(N)(=O)=O)cc1 [compound 2, sulfanilamide]				Ki [4]: 144 nM
O=C1NS(=O)(=O)c2ccccc21 [SAC]	5280	7070		
CC(=O)N=c1sc(S(N)(=O)=O)nn1C [MZA, methazolamide]				Ki [4, 6]: 421 nM
Cc1ccc(S(N)(=O)=O)cc1 [compound 4, tosylamide]				Ki [4, 6]: 47.1 nM
CC1(C)O[C@@H]2[C@@H](CO[C@@]3(COS(N)(=O)=O)OC(C)(C)O[C@@H]23)O1 [TPM, topiramate]			673	Ki [4, 6]: 414 nM
CCN[C@H]1CN(CCCOC)S(=O)(=O)c2sc(S(N)(=O)=O)cc21 [BRZ, brinzolamide]			739	Ki [4, 6]: 451 nM
Nc1ccc(S(N)(=O)=O)cc1Cl [compound 8, 3-chlorosulfanilamide]				Ki [4, 6]: 79.6 nM
Nc1ccc(S(N)(=O)=O)cc1F [compound 7, 3-fluorosulfanilamide]				Ki [4, 6]: 43.2 nM
NS(=O)(=O)c1cc2c(cc1Cl)NCNS2(=O)=O [HCT]	3350	6680		
